For orientation: MIC means the smallest concentration in the dilution series that meets the test's criterion for growth inhibition. Broadly, the MIC50 is the lowest concentration that inhibits either 50% of growth or 50% of the strains tested, depending on the study. The MIC90 is an inhibitory concentration at the 90% level, which refers to growth in some studies and to a panel of isolates in others. Higher therefore signals weaker potency. As a reminder, the AUC is concentration integrated over time.

Series [1] concerns Staphylococcus aureus ATCC 10537. The series can be described thus: Antibacterial activity, MIC. The class given is cell-based. Particulars: ATCC10537, ATCC 10537, agar two-fold dilution, 37° C., 20 hours, read-out: MIC. A digest of the protocol: (§1)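 Values reflect agar dilution testing: Mueller-Hinton medium, two-fold compound series, 2 μl inoculum of 10^7 CFU/ml, 20 h incubation at 37 °C.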

In the next series the test system is Escherichia coli. Briefly: Antibacterial activity against clinically isolated strains, MIC. The format is cell-based. Particulars: 38 clinical isolates, broth microdilution test.
The nature of series [2]: In-vivo absorbency (plasma concentrations & pharmacokinetic parameters). Also on record: species or system SD rat (male). Particulars: plasma, SD male rat, iv 20 mg/kg; for concentration at 1 h: 60 min; for concentration at 1 h / concentration at 2 h: read-out: Plasma Conc.; for concentration at 2 h: 120 min; for AUC / half-life: two compartment model; for half-life: rat, iv, 20 mg/kg. From the text:
The blood samples from the femoral vein of the rats were taken every hour after administration, and analyzed by bio-assay(agar well method).
Tested animal: SD male Rat (220~340 g)

For another series, the system named is Pseudomonas. Briefly: Antibacterial activity. The class given is cell-based. Particulars: statement in words.
Series [3] has as its system Streptococcus faecalis ATCC 29212. The series can be described thus: Antibacterial activity, MIC. The format is cell-based. The note with it: Enterococcus faecalis, ATCC29212; ATCC 29212; agar two-fold dilution, 37° C., 20 hours; read-out: MIC. Summed up: as §1

In brackets after ≈: the same amount, converted by molar mass. Like-named read-outs stand apart in the source and are kept apart here.

Take `C[n+]1c(N)cc(N)nc1SCC1=C(C(=O)[O-])N2C(=O)C(NC(=O)/C(=N\OC(C)(C)C(=O)O)c3csc(N)n3)[C@H]2SC1` (some centres unmarked) [Compound I-1, 7-[(Z)-2-(2-aminothiazol-4-yl)-2-(2-carboxyprop-2-oxyimino)acetamido]-3-(4,6-diamino-1-methylpyrimidinium-2-yl) thiomethyl-3-cephem-4-carboxylate]: in series [1], the MIC is 1 µg/mL (≈ 1.6 µM). In the series with Escherichia coli, this compound yielded an MIC50 of 0.063 µg/mL (≈ 0.101 µM) and an MIC90 of 0.13 µg/mL (≈ 0.208 µM). Also, in series [2], the concentration at 1 h is 7700 ng/mL, the concentration at 2 h was 1800 ng/mL and the AUC is 35300 ng·h/mL. Also, the half-life in series [2] (read-out: T1/2 (α)) was found to be 3 min. The half-life in series [2] (read-out: T1/2 (β)) was determined as 26 min. The “antibacterial activities, especially against Pseudomonas” value with Pseudomonas is “excellent”.
Take `CC[n+]1c(N)cc(N)nc1SCC1=C(C(=O)[O-])N2C(=O)C(NC(=O)/C(=N\OC(C)(C)C(=O)O)c3csc(N)n3)C2SC1` (centres unmarked) [Compound I-2]: in series [1], the MIC came out at 2 µg/mL (≈ 3.14 µM). Moreover, in the series with Escherichia coli, the MIC50 came to 0.063 µg/mL (≈ 0.0988 µM) and the MIC90 is 0.13 µg/mL (≈ 0.204 µM). Moreover, in series [2], the concentration at 1 h amounted to 2600 ng/mL, the concentration at 2 h was 400 ng/mL and the AUC is 11400 ng·h/mL. In addition, the half-life in series [2] (read-out: T1/2 (α)) came to 2 min. The half-life in series [2] (read-out: T1/2 (β)) was found to be 23 min.
Take `CC(O/N=C(\C(=O)NC1C(=O)N2C(C(=O)[O-])=C(CSc3nc(N)cc(N)[n+]3C)CSC12)c1csc(N)n1)C(=O)O` (centres unmarked) [Compound I-4]: in series [1], the MIC is 2 µg/mL (≈ 3.28 µM). In the series with Escherichia coli, the MIC50 came to 0.031 µg/mL (≈ 0.0508 µM) and the MIC90 is 0.063 µg/mL (≈ 0.103 µM). In series [2], the concentration at 1 h came to 2600 ng/mL, the concentration at 2 h came to 400 ng/mL and the AUC was 18600 ng·h/mL. Further, the half-life in series [2] (read-out: T1/2 (α)) came to 2 min. The half-life in series [2] (read-out: T1/2 (β)) was 26 min.
As for `CC[n+]1c(N)cc(N)nc1SCC1=C(C(=O)[O-])N2C(=O)C(NC(=O)/C(=N\OC(C)C(=O)O)c3csc(N)n3)C2SC1` (centres unmarked) [Compound I-5], the MIC in series [1] was found to be 2 µg/mL (≈ 3.21 µM). Moreover, in the series on Escherichia coli, the MIC50 worked out at 0.063 µg/mL (≈ 0.101 µM) and the MIC90 is 0.13 µg/mL (≈ 0.208 µM). Moreover, in series [2], the concentration at 1 h was 9700 ng/mL, the concentration at 2 h amounted to 3000 ng/mL and the AUC is 39000 ng·h/mL. The half-life in series [2] (read-out: T1/2 (α)) was found to be 5 min. For the same compound, the half-life in series [2] (read-out: T1/2 (β)) turned out to be 36 min.
With `C[n+]1c(N)cc(N)nc1SCC1=C(C(=O)[O-])N2C(=O)C(NC(=O)/C(=N\OCC(=O)O)c3csc(N)n3)C2SC1` (centres unmarked) [Compound I-7], the MIC in series [1] worked out at 2 µg/mL (≈ 3.36 µM). Besides, in series [3], the MIC is over 128 µg/mL. Further, in the series on Escherichia coli, the MIC50 came to 0.016 µg/mL (≈ 0.0269 µM) and the MIC90 turned out to be 0.063 µg/mL (≈ 0.106 µM). Also, in series [2], the concentration at 1 h was 8100 ng/mL, the concentration at 2 h worked out at 1900 ng/mL and the AUC is 35700 ng·h/mL. Also, the half-life in series [2] (read-out: T1/2 (α)) is 2 min. For the same compound, in series [2] (read-out: T1/2 (β)), the half-life turned out to be 26 min.
As for `CCO/N=C(\C(=O)NC1C(=O)N2C(C(=O)[O-])=C(CSc3nc(N)cc(N)[n+]3N)CSC12)c1csc(N)n1` (centres unmarked) [Compound I-16], the MIC in series [1] was determined as 0.25 µg/mL (≈ 0.441 µM). In series [3], the MIC stood at 32 µg/mL (≈ 56.5 µM). In the series on Escherichia coli, the MIC50 was found to be 0.13 µg/mL (≈ 0.229 µM) and the MIC90 was 0.25 µg/mL (≈ 0.441 µM). Further, in series [2], the concentration at 1 h worked out at 8800 ng/mL, the concentration at 2 h came out at 1900 ng/mL and the AUC is 38400 ng·h/mL. In addition, in series [2] (read-out: T1/2 (α)), the half-life came out at 4 min. For the same compound, the half-life in series [2] (read-out: T1/2 (β)) was 24 min.
As for `Cc1c(N)nc(SCC2=C(C(=O)[O-])N3C(=O)C(NC(=O)/C(=N\OC(C)(C)C(=O)O)c4csc(N)n4)C3SC2)[n+](C)c1N` (centres unmarked) [Compound I-30], the MIC in series [1] is 2 µg/mL (≈ 3.14 µM). In the series with Escherichia coli, this compound displayed an MIC50 of 0.13 µg/mL (≈ 0.204 µM) and an MIC90 of 0.25 µg/mL (≈ 0.392 µM). In series [2], the concentration at 1 h stood at 9600 ng/mL, the concentration at 2 h was 2700 ng/mL and the AUC is 41800 ng·h/mL. Further, the half-life in series [2] (read-out: T1/2 (α)) was 4 min. The half-life in series [2] (read-out: T1/2 (β)) amounted to 30 min.
For `CCC[n+]1c(N)cc(N)nc1SCC1=C(C(=O)[O-])N2C(=O)C(NC(=O)/C(=N\OC(C)C(=O)O)c3csc(N)n3)C2SC1` (centres unmarked) [Compound I-45], the MIC in series [1] was determined as 2 µg/mL (≈ 3.14 µM). In addition, the MIC in series [3] was over 128 µg/mL. In the series on Escherichia coli, this compound had an MIC50 of 0.13 µg/mL (≈ 0.204 µM) and an MIC90 of 0.13 µg/mL (≈ 0.204 µM). Besides, in series [2], the concentration at 1 h stood at 11000 ng/mL, the concentration at 2 h was determined as 3600 ng/mL and the AUC is 42900 ng·h/mL. Moreover, the half-life in series [2] (read-out: T1/2 (α)) was 4 min. For the same compound, the half-life in series [2] (read-out: T1/2 (β)) was determined as 38 min.

Values taken from patent publication US5202315A, “Cephalosporin compounds” (Lucky, Ltd., priority 1989, dated 1993).
